# Reference: patent publication US9126993B2, “Glucosylceramide synthase inhibitors” (GENZYME CORPORATION, priority 2011, dated 2015)
# Entries after “also recorded” stand apart in the source; their conditions may differ.
# How the values were obtained:
# K14 mice [1] = experiment: Brain GluCer and GluSph levels in K14 mouse model of type 2 Gaucher disease; type: in vivo
# Description: Newborn mice received daily 5 mg/kg intraperitoneal injections of Quinuclidin-3-yl(2-(4′-fluoro-[1, l′-biphenyl]-3-yl)propan-2-yl)carbamate (hereinafter “GZ 161”) in a volume of 10 μl/gram of body weight starting at postnatal day 4. K14 mice and wild type littermates were humanely sacrificed at postnatal day 10 (pre-symptomatic) and at day 14 (humane endpoint) to evaluate glycosphingolipid (GSL) levels. Mice received a 150 mg/kg dose of pentobarbital (Euthasol, Virbac Inc, Fort Worth, Tex.) and were transcardially perfused with cold 0.9% NaCl solution. Brains were dissected and divided; one hemisphere was used for GSL analysis and the other was fixed in 4% paraformaldehyde for 96 hours and processed for histology.
# Quantitative sphingolipid analysis was performed by liquid chromatography and tandem mass spectrometry (LC/MS/MS) as previously described in Merrill et al., Methods 36: 207-224 (2005). Briefly, 10 μl of brain tissue homogenate (tissue weight/water:100 mg/ml) was extracted with 1.00 ml of an organic solvent mixture (97% acetonitrile, 2% methanol, and 1% acetic acid, v/v) and vortexed vigorously for 10 min. Extracted sphingolipids (GluCer and GluSph) were directly separated by hydrophilic liquid chromatography (Atlantis HILIC column, Waters Corp.) and analyzed by triple quadrupole tandem mass spectrometry (API 4000, Applied Biosystems/MDS SCIEX) and compared with sphingolipid standards (Matreya, LLC; Pleasant Gap, Pa.)
# K14 mice [2] = experiment: Brain histopathology (CD68, F4/80, GFAP staining) in K14 mice; type: in vivo, mouse; conditions: daily IP from P4, staining at P10, vs vehicle
# Description: After genotype confirmation, animals were humanely sacrificed at 10 days of age, At this age K14 mice are asymptomatic. Mice received an intraperitoneal injection of 150 mg/kg sodium pentobarbital ((Euthasol, Virbac Inc, Fort Worth, Tex.) and were perfused by an intracardial infusion of chilled 0.9% sodium chloride. Brains were removed and post fixed in 4% paraformaldehyde for 72 hours. Tissue was transferred to PBS and paraffin embedded. Sagital sections 5 μm thick were cut and stained as described below. Gliosis and the presence of cells of the macrophage lineage were evaluated by means of glial fibrillary acidic protein staining and expression of CD68 and F4/80 pan-macrophage markers using the Leica Bond Max Immunostainer system (Leica Microsystems, Wetzlar, Germany).
# GFAP staining: Paraffin sections were placed on mounting slides and processed using the Bond Polymer Refine IHC system (Leica Microsystems, Wetlzar, Germany) blocked for 10 minutes in serum-free protein block (Dako systems, Glostrup, Denmark), incubated for 30 minutes in a 1:1500 dilution of primary anti-GFAP antibody in Dako antibody diluent (Dako, Glostrup, Denmark), and stained using the Bond Polymer Refine detection kit (Leica Microsystems, Wetzlar, Germany). […]
# For each staining technique exposure-matched digital images were obtained from similar brain regions of each experimental group using the Aperio ScanScope XT system (Aperio Technologies, Vista, Calif.). Stained slides were digitalized in high resolution and six areas of interest were highlighted in each slide and analyzed independently by histomorphometry. Positively stained area and nuclei were determined and quantitative data were analyzed by a one-way analysis of variance followed by Tukey's multiple comparison test using the Graph Pad Prism V 4.0 (GraphPad Software, San Diego, Calif.). […]
# K14 mice [3] = experiment: Survival of K14 mice; type: in vivo, mouse; conditions: GZ 161 5 mg/kg IP daily from P4, combination: plus ICV rhGC at P1, 2, 3
# Description: To determine if further benefits could be achieved by prenatal exposure to GZ 161, a subset of pregnant K14 females received GZ 161 in food using a formulation calculated to provide 20 mg/kg/day during the final 5-7 days of gestation. Females receiving GZ 161 were switched to standard diet after delivery and the pups received daily IP injections of GZ 161 at a dose of 5 mg/kg (10 μl per gram of body weight) starting at P 1. A set of WT pups born to females receiving the drug or standard formula was sacrificed immediately after birth to determine whether in utero exposure to GZ 161 could reduce brain GSL levels.
# An animal model of neuropathic Gaucher disease (nGD) identified as K14 were cryoanesthesized and received 2 μl bilateral intracerebroventricular (ICV) injections of either rhGC at 2 mg/ml or vehicle as previously described. (Cabrera-Salazar et al. (2010)) The injected pups were monitored for recovery and returned to the mother following the procedure.
# K14 mice received daily intraperitoneal injections of GZ 161 at a dose of 5 mg/kg of body weight as described above. A separate cohort of animals also received ICV injections of GC at postnatal days 1, 2 and 3 followed by daily IP injections of GZ 161. […] All animals were monitored daily for the development of neurological complications. […] This time point was recorded as end of life and analyzed using Kaplan-Meier plots. […]
# [4] = K14 mice, 5 mg/kg IP daily from P4, brains analyzed at P10
# [5] = daily IP, compared to vehicle-treated K14 mice at the humane endpoint (14-15 days of age)
smiles,measurement,setting,value
"CC(C)(NC(=O)OC1CN2CCC1CC2)c1cccc(-c2ccc(F)cc2)c1 (stereo not shown) [GZ 161, Quinuclidin-3-yl(2-(4′-fluoro-[1,1′-biphenyl]-3-yl)propan-2-yl)carbamate]",brain GluCer level reduction,K14 mice [1]; [4],~70%
same,brain GluSph level reduction,K14 mice [1]; [4],~60%
same,brain GluCer level reduction,K14 mice [1]; [5],> 60%
same,brain GluSph level reduction,K14 mice [1]; [5],> 60%
same,symptom status of treated K14 mice,"K14 mice [1]; daily IP, time point of brain analysis",asymptomatic
same,crossing the blood brain barrier,K14 mice [1]; inferred from reduction of brain glycosphingolipids after systemic (IP) administration,capable of crossing the blood brain barrier
same,"CD68+ cells in brain (hippocampus, thalamus, brainstem, cerebellum)",K14 mice [2],reduces the numbers of CD68+ cells in all of these locations; also recorded: significant reductions the CD68+ cells in all brain regions
same,F4/80+ cells in brain,K14 mice [2],"reduced the numbers of F4/80+ cells in the thalamus and brainstem, but had marginal effects in other brain regions; also recorded: significant reductions the F4/80+ cells in the thalamus and brainstem"
same,GFAP staining (gliosis) in brain,K14 mice [2],decreased GFAP staining in the hippocampus and cerebellum; also recorded: significant reductions the GFAP+ cells in the hippocampus and cerebellum
same,median lifespan,K14 mice [3],18 days
